This note sets out measurements from patent US10577373B2, “TYK2 inhibitors and uses thereof” (Nimbus Lakshmi, Inc., priority 2017, dated 2020).

The structures appear in SMILES notation. Like-named read-outs stand apart in the source and are kept apart here. A value given as a limit tells only on which side of the number the result lay.

For experiment [1], the system named is GM-CSF induced STAT5 phosphorylation mediated by the JAK2/JAK2 homdimeric complex. As to the kind of experiment: GM-CSF Induced pSTAT5 in Human PBMC. To be noted: Homo sapiens, PBMC, 20 min.
Text: Human PBMC are isolated from buffy coat and are stored frozen for assays as needed.
Experiment [2] concerns IL-12 induced STAT4 phophorylation mediated by Tyk2/JAK2 (heterodimeric complex). The experiment can be described thus: IL-12 Induced pSTAT4 in Human PBMC. It is filed as cell-based. Conditions: 1.7 ng/mL IL-12. The source says:
The IL-12 Induced pSTAT4 assay evaluates the inhibition of IL-12 induced STAT4 phophorylation mediated by Tyk2/JAK2 (heterodimeric complex).

Where [3] appears, read: read-out: PBMC_GMCSF_pSTAT5 IC50, human PBMC, GM-CSF 5 ng/mL for 20 minutes, pSTAT5.

The term IC50 denotes the concentration that inhibits the measured activity by half. For `CNc1cc(-c2c[nH]c3c(C)cc(C)cc23)nc2c(C(N)=O)cnn12` [I-36, 5-(5,7-dimethyl-1H-indol-3-yl)-7-(methylamino)pyrazolo[1,5-a]pyrimidine-3-carboxamide], the IC50 in experiment [1] (setting [3]) is over 12500 nM; in experiment [2] it was under 100 nM.
The corresponding values for `CNc1cc(Nc2cccc(N3CCCC3=O)n2)nc2c(C(N)=O)cnn12` [I-47] are over 300 nM and under 100 nM.
The corresponding values for `CNc1cc(Nc2cccnc2OC(C)C)nc2c(C(N)=O)cnn12` [I-72] are over 12500 nM and 100 to 500 nM.
For `CNc1cc(Nc2cccc(N3CCCC3=O)n2)nc2c(C(=O)NC3CCC3)cnn12` [I-94], in that order: over 50000 nM and under 100 nM.
Consider `CNc1cc(Nc2cccn(-c3cnc(C(C)(C)O)cn3)c2=O)nc2c(C(=O)NC3CCC3)cnn12` [I-95], for which the half-maximal inhibitory concentration (IC50) in experiment [1] (read-out: PBMC_GMCSF_pSTAT5 IC50) is over 50000 nM; in experiment [2] it was under 100 nM.
Turning to `CNc1cc(Nc2cccc(N3CCOC3=O)n2)nc2c(C(=O)NC3CCC3)cnn12` [I-105], the values for the IC50 in experiment [1] (setting [3]) and in experiment [2] were over 12500 nM and under 100 nM, respectively.
Regarding `CNc1cc(Nc2cccnc2OC)nc2c(C(=O)N[C@H]3C[C@H]3F)cnn12` [I-110], the half-maximal inhibitory concentration (IC50) in experiment [1] (setting [3]) is over 50000 nM; in experiment [2], under 100 nM.
For `CNc1cc(Nc2cccn(-c3ccc(F)cn3)c2=O)nc2c(C(=O)N[C@H]3C[C@H]3F)cnn12` [I-115], in that order: over 12500 nM and under 100 nM.
Turning to `CCOc1ccc(-n2cccc(Nc3cc(NC)n4ncc(C(=O)N[C@H]5C[C@H]5F)c4n3)c2=O)nn1` [I-117], the results for the 50% inhibitory concentration (IC50) in experiment [1] (setting [3]) and in experiment [2] were over 2500 nM and under 100 nM, respectively.
As for `CNc1cc(Nc2cccn(-c3ccc(C(=O)N4CCCC4)cn3)c2=O)nc2c(C(=O)NC3CCC3)cnn12` [I-121], the half-maximal inhibitory concentration (IC50) in experiment [1] (setting [3]) was over 12500 nM; in experiment [2], 100 to 500 nM.
Turning to `CNc1cc(Nc2cccn(-c3cnc(C(=O)N(C)C)cn3)c2=O)nc2c(C(=O)NC3CCC3)cnn12` [I-122], the IC50 is over 2500 nM in experiment [1] (setting [3]) and under 100 nM in experiment [2].
For `CNc1cc(Nc2cccn(-c3cccc(C(C)(C)O)n3)c2=O)nc2c(C(=O)N[C@H]3C[C@H]3F)cnn12` [I-123], in that order: over 50000 nM and under 100 nM.
For `CNc1cc(Nc2cccn(-c3cnc(C(=O)N(C)C)cn3)c2=O)nc2c(C(=O)N[C@H]3C[C@H]3F)cnn12` [I-126], in that order: over 50000 nM and under 100 nM.
As for `CNc1cc(Nc2cccn(-c3cnc(C(=O)N(C)C)cn3)c2=O)nc2c(C(=O)NC3CC3)cnn12` [I-127, N-cyclopropyl-5-((1-(5-(dimethylcarbamoyl)pyrazin-2-yl)-2-oxo-1,2-dihydropyridin-3-yl)amino)-7-(methylamino)pyrazolo[1,5-a]pyrimidine-3-carboxamide], the IC50 in experiment [1] (setting [3]) was over 12500 nM; in experiment [2] it was under 100 nM.
For `CNc1cc(Nc2cccn(-c3cccc(C)n3)c2=O)nc2c(C(=O)N[C@H]3C[C@H]3F)cnn12` [I-131], in that order: over 12500 nM and under 100 nM.
For `CNc1cc(Nc2cccn(-c3ccc(F)cc3)c2=O)nc2c(C(=O)N[C@H]3C[C@H]3F)cnn12` [I-132], in that order: over 2500 nM and under 100 nM.
In the case of `CCn1cc(Cl)cc(Nc2cc(NC)n3ncc(C(=O)NC4CC4)c3n2)c1=O` [I-133, 5-((5-chloro-1-ethyl-2-oxo-1,2-dihydropyridin-3-yl)amino)-N-cyclopropyl-7-(methylamino)pyrazolo[1,5-a]pyrimidine-3-carboxamide], the IC50 was over 12500 nM in experiment [1] (setting [3]) and under 100 nM in experiment [2].
For `CNc1cc(Nc2cccn(-c3ccc(N4CCOCC4)cc3)c2=O)nc2c(C(=O)N[C@H]3C[C@H]3F)cnn12` [I-135], in that order: over 2500 nM and under 100 nM.
With `CNc1cc(Nc2cccn(-c3cc(C)n(C)n3)c2=O)nc2c(C(=O)NC3CCC3)cnn12` [I-136], the IC50 in experiment [1] (setting [3]) is over 2500 nM; in experiment [2], under 100 nM.
For `CNc1cc(Nc2cccn(-c3cc(C)n(C)n3)c2=O)nc2c(C(=O)N[C@H]3C[C@H]3F)cnn12` [I-137], in that order: over 50000 nM and under 100 nM.
For `CNc1cc(Nc2cccn(-c3cc(C)n(C)n3)c2=O)nc2c(C(=O)NC3CC3)cnn12` [I-138], in that order: over 50000 nM and under 100 nM.
The corresponding values for `CNc1cc(Nc2cccn(-c3ccn(C)n3)c2=O)nc2c(C(=O)NC3CCC3)cnn12` [I-139] are over 50000 nM and under 100 nM.
With `CNc1cc(Nc2cccn(-c3ccc(C)nn3)c2=O)nc2c(C(=O)NC3CCC3)cnn12` [I-141], the IC50 was over 50000 nM in experiment [1] (setting [3]) and under 100 nM in experiment [2].
For `CNc1cc(Nc2cccnc2OC(C)C)nc2c(C(=O)NC3CCC3)cnn12` [I-145], in that order: over 50000 nM and 100 to 500 nM.
With `CNc1cc(Nc2cccnc2OC(C)C)nc2c(C(=O)N[C@H]3C[C@H]3F)cnn12` [I-147], the values for the IC50 in experiment [1] (setting [3]) and in experiment [2] were over 50000 nM and under 100 nM, respectively.
The corresponding values for `CNc1cc(Nc2cccnc2OC(F)F)nc2c(C(=O)NC3CCC3)cnn12` [I-151] are over 50000 nM and under 100 nM.
Take `CNc1cc(Nc2cccnc2OC(F)F)nc2c(C(=O)N[C@H]3C[C@H]3F)cnn12` [I-153]: the IC50 in experiment [1] (setting [3]) was over 12500 nM; in experiment [2], under 100 nM.
For `CNc1cc(Nc2cccnc2OC(F)F)nc2c(C(=O)NC3CC3)cnn12` [I-154], in that order: over 12500 nM and under 100 nM.
The corresponding values for `CNc1cc(Nc2cccn(-c3cccc(C(C)(C)O)n3)c2=O)nc2c(C(=O)NC3CCC3)cnn12` [I-156] are over 12500 nM and under 100 nM.
The corresponding values for `CNc1cc(Nc2cccn(-c3ccon3)c2=O)nc2c(C(=O)NC3CCC3)cnn12` [I-158] are over 50000 nM and under 100 nM.
As to `CNc1cc(Nc2cccn(-c3cc(C)on3)c2=O)nc2c(C(=O)NC3CCC3)cnn12` [I-160], the results for the IC50 in experiment [1] (setting [3]) and in experiment [2] were over 12500 nM and under 100 nM, respectively.
The corresponding values for `CNc1cc(Nc2cccn(-c3cc(C)on3)c2=O)nc2c(C(=O)N[C@H]3C[C@H]3F)cnn12` [I-161] are over 12500 nM and under 100 nM.
For `CNc1cc(Nc2cccn(-c3cc(C)on3)c2=O)nc2c(C(=O)NC3CC3)cnn12` [I-162], in that order: over 2500 nM and under 100 nM.
The corresponding values for `CNc1cc(Nc2cccn(-c3ccc(N4CCOCC4)cn3)c2=O)nc2c(C(=O)NC3CCC3)cnn12` [I-163] are over 2500 nM and under 100 nM.
Regarding `CNc1cc(Nc2cc(Cl)cn(-c3ccc(C)nn3)c2=O)nc2c(C(=O)N[C@H]3C[C@H]3F)cnn12` [I-164], the IC50 was over 50000 nM in experiment [1] (setting [3]) and under 100 nM in experiment [2].
For `CNc1cc(Nc2cccn(-c3ccc(C4CC4)nn3)c2=O)nc2c(C(=O)N[C@H]3C[C@H]3F)cnn12` [I-165], in that order: over 2500 nM and under 100 nM.
Regarding `CNc1cc(Nc2cccnc2OC2CCC2)nc2c(C(=O)N[C@H]3C[C@H]3F)cnn12` [I-170], the IC50 in experiment [1] (setting [3]) is over 50000 nM; in experiment [2] it was under 100 nM.
For `[2H]C([2H])([2H])Oc1ncccc1Nc1cc(NC)n2ncc(C(=O)NC3CCC3)c2n1` [I-176], in that order: over 50000 nM and under 100 nM.
For `[2H]C([2H])([2H])Oc1ncccc1Nc1cc(NC)n2ncc(C(=O)N[C@H]3C[C@H]3F)c2n1` [I-177], in that order: over 12500 nM and under 100 nM.
For `CNc1cc(Nc2cccn([C@H]3CC[C@@H](N4CCOCC4)CC3)c2=O)nc2c(C(=O)NC3CCC3)cnn12` [I-182], in that order: over 2500 nM and under 100 nM.
With `CNc1cc(-c2c[nH]c3c(C4CCOCC4)cc(Cl)cc23)nc2c(C(N)=O)cnn12` [I-190], the IC50 in experiment [1] (setting [3]) was over 12500 nM; in experiment [2], under 100 nM.
For `CNc1cc(Nc2cccn(C3CCN(CC(F)F)CC3)c2=O)nc2c(C(=O)NC3CCC3)cnn12` [I-192], in that order: over 12500 nM and under 100 nM.
`CNc1cc(Nc2cc(F)cn(-c3ccccn3)c2=O)nc2c(C(=O)NC3CCC3)cnn12` [I-193]: the figures for the half-inhibitory concentration (IC50) in experiment [1] (setting [3]) and in experiment [2] were over 12500 nM and under 100 nM, respectively.
The corresponding values for `CNc1cc(Nc2cc(F)cn(-c3ccccn3)c2=O)nc2c(C(=O)N[C@H]3C[C@H]3F)cnn12` [I-194] are over 12500 nM and under 100 nM.
For `CNc1cc(Nc2cc(F)cn(-c3ccc(C)nn3)c2=O)nc2c(C(=O)N[C@H]3C[C@H]3F)cnn12` [I-198], in that order: over 2500 nM and under 100 nM.
Consider `CNc1cc(Nc2cc(F)cnc2OC(C)C)nc2c(C(=O)N[C@H]3C[C@H]3F)cnn12` [I-211], for which the IC50 in experiment [1] (setting [3]) is over 50000 nM; in experiment [2] it was 100 to 500 nM.
Turning to `CNc1cc(Nc2cccnc2OC2CC2)nc2c(C(=O)NC3CC3)cnn12` [I-215, 5-((2-cyclopropoxypyridin-3-yl)amino)-N-cyclopropyl-7-(methylamino) pyrazolo[1,5-a]pyrimidine-3-carboxamide], the IC50 is over 50000 nM in experiment [1] (setting [3]) and under 100 nM in experiment [2].
For `CNc1cc(Nc2cccnc2OC2CC2)nc2c(C(=O)NC3CCC3)cnn12` [I-216], in that order: over 12500 nM and under 100 nM.
Consider `CNc1cc(Nc2cccnc2OC2CC2)nc2c(C(=O)N[C@H]3C[C@H]3F)cnn12` [I-217], for which the values for the IC50 in experiment [1] (setting [3]) and in experiment [2] were over 50000 nM and under 100 nM, respectively.
The corresponding values for `CNc1cc(Nc2cccnc2OCCOC)nc2c(C(=O)NC3CCC3)cnn12` [I-219] are over 12500 nM and under 100 nM.
For the compound `CNc1cc(Nc2cccnc2OCCOC)nc2c(C(=O)N[C@H]3C[C@H]3F)cnn12` [I-220], the values for the IC50 in experiment [1] (setting [3]) and in experiment [2] were over 12500 nM and under 100 nM, respectively.
